Data: US20240415914A1, “Water Dispersible Cannabinoid Compositions” (priority 2021, published 2024)

Test: Stability of cannabinoid and Vitamin E components of Beverage 2 (AB Red) stored at 8° C. and 21-25° C., LCMSMS over 570 days
Description: The LCMSMS was calibrated for 0-50 ng/ml cannabinoids with the same resin material used in the preparation of the concentrates. At each time period, 100 μml of beverage was diluted with 10 ml of methanol and injected into the LCMSMS for analysis.

Structure (SMILES): CCCCCc1cc(O)c(C/C=C(\C)CCC=C(C)C)c(O)c1 [CBG, cannabigerol]
- Stability of Cannabinoids in AB Red (8° C., 26 days): 4.68 µg/mL
- Stability of Cannabinoids in AB Red (8° C., 29 days): 4.80 µg/mL
- Stability of Cannabinoids in AB Red (8° C., 30 days): 4.72 µg/mL
- Stability of Cannabinoids in AB Red (8° C., 60 days): 4.70 µg/mL
- Stability of Cannabinoids in AB Red (8° C., 90 days): 4.73 µg/mL
- Stability of Cannabinoids in AB Red (8° C., 120 days): 4.68 µg/mL
- Stability of Cannabinoids in AB Red (8° C., 150 days): 4.67 µg/mL
- Stability of Cannabinoids in AB Red (8° C., 180 days): 4.65 µg/mL
- Stability of Cannabinoids in AB Red (8° C., 210 days): 4.60 µg/mL
- Stability of Cannabinoids in AB Red (8° C., 240 days): 4.68 µg/mL
- Stability of Cannabinoids in AB Red (8° C., 270 days): 4.66 µg/mL
- Stability of Cannabinoids in AB Red (8° C., 300 days): 4.70 µg/mL
- Stability of Cannabinoids in AB Red (8° C., 330 days): 4.60 µg/mL
- Stability of Cannabinoids in AB Red (8° C., 390 days): 4.55 µg/mL
- Stability of Cannabinoids in AB Red (8° C., 420 days): 4.58 µg/mL
- Stability of Cannabinoids in AB Red (8° C., 450 days): 4.54 µg/mL
- Stability of Cannabinoids in AB Red (8° C., 480 days): 4.51 µg/mL
- Stability of Cannabinoids in AB Red (8° C., 510 days): 4.40 µg/mL
- Stability of Cannabinoids in AB Red (8° C., 540 days): 4.42 µg/mL
- Stability of Cannabinoids in AB Red (8° C., 570 days): 4.37 µg/mL
- Stability of Cannabinoids in AB Red (21-25° C., 0 days): 4.75 µg/mL
- Stability of Cannabinoids in AB Red (21-25° C., 1 days): 4.57 µg/mL
- Stability of Cannabinoids in AB Red (21-25° C., 2 days): 4.61 µg/mL
- Stability of Cannabinoids in AB Red (21-25° C., 3 days): 4.71 µg/mL
- Stability of Cannabinoids in AB Red (21-25° C., 5 days): 4.66 µg/mL
- Stability of Cannabinoids in AB Red (21-25° C., 8 days): 4.66 µg/mL
- Stability of Cannabinoids in AB Red (21-25° C., 9 days): 4.74 µg/mL
- Stability of Cannabinoids in AB Red (21-25° C., 10 days): 4.59 µg/mL
- Stability of Cannabinoids in AB Red (21-25° C., 11 days): 4.72 µg/mL
- Stability of Cannabinoids in AB Red (21-25° C., 12 days): 4.62 µg/mL
- Stability of Cannabinoids in AB Red (21-25° C., 15 days): 4.80 µg/mL
- Stability of Cannabinoids in AB Red (21-25° C., 16 days): 4.75 µg/mL
- Stability of Cannabinoids in AB Red (21-25° C., 17 days): 4.63 µg/mL
- Stability of Cannabinoids in AB Red (21-25° C., 18 days): 4.70 µg/mL
- Stability of Cannabinoids in AB Red (21-25° C., 19 days): 4.66 µg/mL
- Stability of Cannabinoids in AB Red (21-25° C., 22 days): 4.71 µg/mL
- Stability of Cannabinoids in AB Red (21-25° C., 23 days): 4.67 µg/mL
- Stability of Cannabinoids in AB Red (21-25° C., 24 days): 4.78 µg/mL
- Stability of Cannabinoids in AB Red (21-25° C., 25 days): 4.56 µg/mL
- Stability of Cannabinoids in AB Red (21-25° C., 26 days): 4.77 µg/mL
- Stability of Cannabinoids in AB Red (21-25° C., 29 days): 4.78 µg/mL
- Stability of Cannabinoids in AB Red (21-25° C., 30 days): 4.73 µg/mL
- Stability of Cannabinoids in AB Red (21-25° C., 60 days): 4.61 µg/mL
- Stability of Cannabinoids in AB Red (21-25° C., 90 days): 4.55 µg/mL
- Stability of Cannabinoids in AB Red (21-25° C., 120 days): 4.61 µg/mL
- Stability of Cannabinoids in AB Red (21-25° C., 150 days): 4.65 µg/mL
- Stability of Cannabinoids in AB Red (21-25° C., 180 days): 4.53 µg/mL
- Stability of Cannabinoids in AB Red (21-25° C., 210 days): 4.63 µg/mL
- Stability of Cannabinoids in AB Red (21-25° C., 240 days): 4.56 µg/mL
- Stability of Cannabinoids in AB Red (21-25° C., 270 days): 4.68 µg/mL
- Stability of Cannabinoids in AB Red (21-25° C., 300 days): 4.47 µg/mL
- Stability of Cannabinoids in AB Red (21-25° C., 330 days): 4.57 µg/mL
- Stability of Cannabinoids in AB Red (21-25° C., 390 days): 4.57 µg/mL
- Stability of Cannabinoids in AB Red (21-25° C., 420 days): 4.51 µg/mL
- Stability of Cannabinoids in AB Red (21-25° C., 450 days): 4.63 µg/mL
- Stability of Cannabinoids in AB Red (21-25° C., 480 days): 4.44 µg/mL
- Stability of Cannabinoids in AB Red (21-25° C., 510 days): 4.37 µg/mL
- Stability of Cannabinoids in AB Red (21-25° C., 540 days): 4.49 µg/mL
- Stability of Cannabinoids in AB Red (21-25° C., 570 days): 4.36 µg/mL
